Measured values: PubChem BioAssay (NCI)
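The compound was tested at five concentrations on cells cultured in 96-well plates, with a 48-hour exposure period. At the TGI there is no net growth.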

test system: EKVX NSCLC; assay: DTP human tumour cell line panel, 48 h

Compared with `OCCOCCO/N=C1\C(c2c(O)[nH]c3ccccc23)=Nc2ccccc21`, `Cc1nc2ccccc2c(=O)n1NC(=O)c1ccc(N)cc1` is higher in TGI: 18.2 µM for the first, greater than 100 µM for the second.

test system: NCI/ADR-RES ovarian; assay: DTP human tumour cell line panel, 48 h

`Oc1ccc(-c2nc3ccc(F)cc3s2)cc1` and `OCCOCCO/N=C1\C(c2c(O)[nH]c3ccccc23)=Nc2ccccc21` cannot be ordered by TGI: 52.8 µM for the first, greater than 49.2 µM for the second.

`COc1ccc(NC(C)=O)cc1N1C(=O)/C(=C\c2cccc(Oc3ccccc3)c2)S(=O)(=O)C1c1ccccc1` (configuration not stated) gave a TGI greater than 100 µM.

test system: OVCAR-3 ovarian; assay: DTP human tumour cell line panel, 48 h

Compared with `CCc1c(-c2ccccc2)[nH]c2ccccc2c1=O`, `OCCOCCO/N=C1\C(c2c(O)[nH]c3ccccc23)=Nc2ccccc21` is lower in TGI: greater than 100 µM for the first, 10.2 µM for the second.

Compared with `Oc1ccc(-c2nc3ccc(F)cc3s2)cc1`, `Cc1nc2ccccc2c(=O)n1NC(=O)c1ccc(N)cc1` is higher in TGI: 90.9 µM for the first, greater than 100 µM for the second.

Compound `COc1ccc(NC(C)=O)cc1N1C(=O)/C(=C\c2cccc(Oc3ccccc3)c2)S(=O)(=O)C1c1ccccc1` (configuration not stated) has a TGI greater than 100 µM.

test system: MALME-3M melanoma; assay: DTP human tumour cell line panel, 48 h

Compared with `CCc1c(-c2ccccc2)[nH]c2ccccc2c1=O`, `OCCOCCO/N=C1\C(c2c(O)[nH]c3ccccc23)=Nc2ccccc21` is lower in TGI: greater than 100 µM for the first, 17.5 µM for the second.

Going from `Oc1ccc(-c2nc3ccc(F)cc3s2)cc1` to `Cc1nc2ccccc2c(=O)n1NC(=O)c1ccc(N)cc1`, the TGI rises from 38.5 µM to greater than 100 µM.

In the case of `COc1ccc(NC(C)=O)cc1N1C(=O)/C(=C\c2cccc(Oc3ccccc3)c2)S(=O)(=O)C1c1ccccc1` (configuration not stated), the TGI is reported as greater than 100 µM.

test system: ACHN renal; assay: DTP human tumour cell line panel, 48 h

Going from `CCc1c(-c2ccccc2)[nH]c2ccccc2c1=O` to `OCCOCCO/N=C1\C(c2c(O)[nH]c3ccccc23)=Nc2ccccc21`, the TGI falls from greater than 100 µM to 10.3 µM.

Compared with `Oc1ccc(-c2nc3ccc(F)cc3s2)cc1`, `Cc1nc2ccccc2c(=O)n1NC(=O)c1ccc(N)cc1` is higher in TGI: 38.6 µM for the first, greater than 100 µM for the second.

For `COc1ccc(NC(C)=O)cc1N1C(=O)/C(=C\c2cccc(Oc3ccccc3)c2)S(=O)(=O)C1c1ccccc1` (configuration not stated), the TGI was greater than 100 µM.

test system: CCRF-CEM leukemia; assay: DTP human tumour cell line panel, 48 h

`CCc1c(-c2ccccc2)[nH]c2ccccc2c1=O` and `OCCOCCO/N=C1\C(c2c(O)[nH]c3ccccc23)=Nc2ccccc21` cannot be ordered by TGI: greater than 100 µM for the first, greater than 100 µM for the second.

First: COc1ccc(NC(C)=O)cc1N1C(=O)/C(=C\c2cccc(Oc3ccccc3)c2)S(=O)(=O)C1c1ccccc1 (configuration not stated)
Second: Cc1nc2ccccc2c(=O)n1NC(=O)c1ccc(N)cc1
The TGI of the first is lower: 83.8 µM for the first, greater than 100 µM for the second.

test system: DU-145 prostate; assay: DTP human tumour cell line panel, 48 h

First: CCc1c(-c2ccccc2)[nH]c2ccccc2c1=O
Second: OCCOCCO/N=C1\C(c2c(O)[nH]c3ccccc23)=Nc2ccccc21
The TGI of the first is higher: greater than 100 µM for the first, 22.8 µM for the second.

Compared with `Oc1ccc(-c2nc3ccc(F)cc3s2)cc1`, `Cc1nc2ccccc2c(=O)n1NC(=O)c1ccc(N)cc1` is higher in TGI: 30.3 µM for the first, greater than 100 µM for the second.

In the case of `COc1ccc(NC(C)=O)cc1N1C(=O)/C(=C\c2cccc(Oc3ccccc3)c2)S(=O)(=O)C1c1ccccc1` (configuration not stated), the TGI is reported as greater than 100 µM.

test system: UACC-62 melanoma; assay: DTP human tumour cell line panel, 48 h

First: CCc1c(-c2ccccc2)[nH]c2ccccc2c1=O
Second: OCCOCCO/N=C1\C(c2c(O)[nH]c3ccccc23)=Nc2ccccc21
The TGI of the first is higher: greater than 100 µM for the first, 6.99 µM for the second.

First: Oc1ccc(-c2nc3ccc(F)cc3s2)cc1
Second: Cc1nc2ccccc2c(=O)n1NC(=O)c1ccc(N)cc1
The TGI of the first is lower: 34.8 µM for the first, greater than 100 µM for the second.

In the case of `COc1ccc(NC(C)=O)cc1N1C(=O)/C(=C\c2cccc(Oc3ccccc3)c2)S(=O)(=O)C1c1ccccc1` (configuration not stated), the TGI is reported as greater than 100 µM.

test system: OVCAR-8 ovarian; assay: DTP human tumour cell line panel, 48 h

First: Oc1ccc(-c2nc3ccc(F)cc3s2)cc1
Second: Cc1nc2ccccc2c(=O)n1NC(=O)c1ccc(N)cc1
The TGI of the first is lower: 39.9 µM for the first, greater than 100 µM for the second.

Compared with `COc1ccc(NC(C)=O)cc1N1C(=O)/C(=C\c2cccc(Oc3ccccc3)c2)S(=O)(=O)C1c1ccccc1` (configuration not stated), `OCCOCCO/N=C1\C(c2c(O)[nH]c3ccccc23)=Nc2ccccc21` is lower in TGI: greater than 100 µM for the first, 27.9 µM for the second.

test system: T-47D breast; assay: DTP human tumour cell line panel, 48 h

`CCc1c(-c2ccccc2)[nH]c2ccccc2c1=O` and `OCCOCCO/N=C1\C(c2c(O)[nH]c3ccccc23)=Nc2ccccc21` cannot be ordered by TGI: greater than 100 µM for the first, greater than 44.6 µM for the second.

Compared with `Oc1ccc(-c2nc3ccc(F)cc3s2)cc1`, `Cc1nc2ccccc2c(=O)n1NC(=O)c1ccc(N)cc1` is higher in TGI: 36 µM for the first, greater than 100 µM for the second.

In the case of `COc1ccc(NC(C)=O)cc1N1C(=O)/C(=C\c2cccc(Oc3ccccc3)c2)S(=O)(=O)C1c1ccccc1` (configuration not stated), the TGI is reported as greater than 100 µM.

test system: A549 NSCLC; assay: DTP human tumour cell line panel, 48 h

Compared with `CCc1c(-c2ccccc2)[nH]c2ccccc2c1=O`, `OCCOCCO/N=C1\C(c2c(O)[nH]c3ccccc23)=Nc2ccccc21` is lower in TGI: greater than 100 µM for the first, 17.1 µM for the second.

Compared with `Oc1ccc(-c2nc3ccc(F)cc3s2)cc1`, `Cc1nc2ccccc2c(=O)n1NC(=O)c1ccc(N)cc1` is higher in TGI: 43.1 µM for the first, greater than 100 µM for the second.

Compound `COc1ccc(NC(C)=O)cc1N1C(=O)/C(=C\c2cccc(Oc3ccccc3)c2)S(=O)(=O)C1c1ccccc1` (configuration not stated) has a TGI greater than 100 µM.

test system: SNB-75 CNS; assay: DTP human tumour cell line panel, 48 h

`COc1ccc(NC(C)=O)cc1N1C(=O)/C(=C\c2cccc(Oc3ccccc3)c2)S(=O)(=O)C1c1ccccc1` (configuration not stated) and `Cc1nc2ccccc2c(=O)n1NC(=O)c1ccc(N)cc1` cannot be ordered by TGI: greater than 100 µM for the first, greater than 100 µM for the second.

Work on `OCCOCCO/N=C1\C(c2c(O)[nH]c3ccccc23)=Nc2ccccc21` yielded a TGI of 13.8 µM.

test system: UO-31 renal; assay: DTP human tumour cell line panel, 48 h

Compared with `CCc1c(-c2ccccc2)[nH]c2ccccc2c1=O`, `OCCOCCO/N=C1\C(c2c(O)[nH]c3ccccc23)=Nc2ccccc21` is 24-fold higher in TGI: 0.266 µM for the first, 6.48 µM for the second.

First: Oc1ccc(-c2nc3ccc(F)cc3s2)cc1
Second: Cc1nc2ccccc2c(=O)n1NC(=O)c1ccc(N)cc1
The TGI of the first is lower: 30.1 µM for the first, greater than 100 µM for the second.

Work on `COc1ccc(NC(C)=O)cc1N1C(=O)/C(=C\c2cccc(Oc3ccccc3)c2)S(=O)(=O)C1c1ccccc1` (configuration not stated) yielded a TGI greater than 100 µM.

test system: OVCAR-4 ovarian; assay: DTP human tumour cell line panel, 48 h

Going from `CCc1c(-c2ccccc2)[nH]c2ccccc2c1=O` to `OCCOCCO/N=C1\C(c2c(O)[nH]c3ccccc23)=Nc2ccccc21`, the TGI falls from greater than 100 µM to 43.1 µM.

Compared with `Oc1ccc(-c2nc3ccc(F)cc3s2)cc1`, `Cc1nc2ccccc2c(=O)n1NC(=O)c1ccc(N)cc1` is higher in TGI: 58.1 µM for the first, greater than 100 µM for the second.

With `COc1ccc(NC(C)=O)cc1N1C(=O)/C(=C\c2cccc(Oc3ccccc3)c2)S(=O)(=O)C1c1ccccc1` (configuration not stated) the TGI was greater than 100 µM.

test system: HCT-15 colon; assay: DTP human tumour cell line panel, 48 h

`CCc1c(-c2ccccc2)[nH]c2ccccc2c1=O` and `OCCOCCO/N=C1\C(c2c(O)[nH]c3ccccc23)=Nc2ccccc21` cannot be ordered by TGI: greater than 100 µM for the first, greater than 52.4 µM for the second.

Compared with `Oc1ccc(-c2nc3ccc(F)cc3s2)cc1`, `COc1ccc(NC(C)=O)cc1N1C(=O)/C(=C\c2cccc(Oc3ccccc3)c2)S(=O)(=O)C1c1ccccc1` (configuration not stated) is higher in TGI: 35 µM for the first, greater than 100 µM for the second.

test system: SW-620 colon; assay: DTP human tumour cell line panel, 48 h

`Oc1ccc(-c2nc3ccc(F)cc3s2)cc1` and `COc1ccc(NC(C)=O)cc1N1C(=O)/C(=C\c2cccc(Oc3ccccc3)c2)S(=O)(=O)C1c1ccccc1` (configuration not stated) cannot be ordered by TGI: greater than 100 µM for the first, greater than 100 µM for the second.
